From a melting point compilation (Tetko et al.; mined from patent text by program, amines drawn as free bases though some values may be those of a salt)

SMILES | melting point [°C]
CCCNC(=O)C(C)=Cc1ccc2[nH]cc(Cc3ccc(C(=O)OC)cc3OC)c2c1 | 55 to 60
COc1cc(OC)cc(N2CCN(C(=O)N(C)c3cc4ccccc4nc3OC)CC2)c1 | 88 to 89
COc1cc2c(cc1Br)C=C(C)N(C(=O)C1CC1)N=C2c1ccc(N)cc1 | 224 to 226
Cc1nc(N)c2nc(C)n(CCOCCCc3cccnc3)c2c1C | 109 to 110
Cc1nc(-c2ccc(C(F)(F)F)cc2)sc1CCOc1ccc(CCC(=O)O)cc1 | 128 to 130
COc1cc(OC)nc(OC(C(=O)O)C2CCc3ccccc32)n1 (centres undefined) | 113 to 117
Cc1cc(C(=O)c2ccccc2C(F)(F)F)c(N)s1 | 136 to 137
CN(CCO)c1cc(Cl)nc(SCC(=O)O)n1 | 188 to 190
N#CC1=C(C#N)Sc2nc3cc(C(F)(F)F)ccc3nc2S1 | 197 to 199
COc1ccc(CCNc2c(-c3ccc(S(C)(=O)=O)cc3)cnn(CC(F)(F)F)c2=O)cc1OC | 163 to 165
Cc1ccn2cc(CS)nc2c1 | 164 to 168
CC1OC(OCc2ccccc2)C(F)C(O)C1O (centres undefined) | 124 to 126
CNC(=O)c1ccc(CN2CCN(c3nc(C)c(C(C)=O)s3)C2=O)cc1 | 173 to 175
CC(C)(C)c1cc(C(=O)Nc2ccc([N+](=O)[O-])cc2)cc(C(C)(C)C)c1O | 277 to 278
O=C1COc2ccc(C3=Cc4ccccc4OC3c3ccccc3)cc2N1 (centres undefined) | 246 to 249
CN1C(=O)c2cccnc2Nc2cc(C(F)(F)F)ccc21 | 169 to 172
CCOC(=O)c1c(C(C)C)nc2c(c1-c1ccc(F)cc1)CCCC2(C)C | 124 to 126
NCC1Cc2c(F)c(F)cc(-c3ccccc3)c2O1 (centres undefined) | > 240
ON=Cc1ccc(-c2ccc(O)c(F)c2)c2ccccc12 | 187 to 188
O=C(C=Cc1cccc(Oc2ccccc2)c1)NCCCCCC(=O)NO | 113 to 115
CC(C)(C)c1ccc(O[C@@H]2CCNC[C@H]2O)cc1 (relative stereo) | 138 to 140
O=C1c2cc(N(CCO)CCO)ccc2OC12CC2 | 96 to 97
Cc1ccccc1C(=O)CN1C(=O)C(NC(=O)Nc2cccc(-c3nnn[nH]3)c2)N=C(c2ccccc2F)c2cccc(C)c21 (centres undefined) | 216 to 220
Cc1nc(N2CCN(Cc3ccc(F)cc3)C2=O)sc1C(=O)NCc1cnn(C)c1 | 173 to 175
CN(C[C@H](O)[C@@H](O)[C@H](O)[C@H](O)CO)C(=O)c1ccc2n1Cc1ccccc1N(C(=O)c1ccc(-c3cccc4ccccc34)nc1)C2 | 165 to 167

SMILES | melting point [°C]
CCn1ncc2c1ncc1c(N3CCCCC3)nc3cc(C)nn3c12 | 176 to 177
N#Cc1cc(NC(=O)c2cc3ccccc3s2)ccc1OC1CCN(Cc2ccccc2)CC1 | 206
CCN1c2ncccc2C(=O)N(C)c2ccc(-c3c[nH]c(C(=O)O)c3)nc21 | 256 to 257
Cc1ccc2c(c1)CC(=O)c1cc(C(C)C(=O)O)ccc1S2 (centres undefined) | 157 to 159
COCCOc1cc(NC(=O)OC(C)(C)C)c(NC(=O)CC(=O)c2cccc(I)c2)cc1C#Cc1ccccc1 | 172
CC(C)c1ccc(CNc2ccc(S(=O)(=O)O)cc2)cc1 | > 275
Nc1cc(=O)n(Cc2ccc(F)cc2)[nH]1 | 148
COC(=O)C1=C(S(=O)(=O)NC(=O)Nc2nc(C)cc(OC)n2)CCC1 | 161 to 163
Cn1ncc(-c2nn(-c3cccc(C(F)(F)F)c3)ccc2=O)c1-c1ccccc1 | 193 to 195
Cc1cn2ccccc2c1[N+](=O)[O-] | 137 to 139
CCCCCCCCCCCCc1c[nH]c(C(=O)NN)c1 | 137 to 140
Cc1ccc(-c2nc(CCCCCCSC(C)(C)C(=O)O)c(C)o2)cc1 | 111
CCCc1nc(N)nc(N2CCOCC2)n1 | 127 to 128
O=C(NCc1ccc(F)cc1)c1cn(N2CCOCC2)c2ccc(CN3CCOCC3)cc2c1=O | 165 to 167
CCN(CC)CCNc1cc(-c2c(-c3cccc(C)c3)nc3cccnn23)ccn1 | 97 to 98
CCC(=O)N(C)c1cccc(-c2ccc3nncn3n2)c1 | 146 to 150
CC(=O)Nc1cccc2c1CCCC2 | 158
O=Cc1cc(OCCCNC(=O)NC2CCCCC2)ccc1[N+](=O)[O-] | 150 to 152
O=C(NC[C@@H]1CCNC[C@H]1O)c1cc(Cl)cc2c1OCCCO2 | 114
Cc1nc(NCc2ccccn2)n(C)c(=O)c1CCO | 245
O=C(NC1CCC1)c1ccc2nonc2c1 | 175 to 176
CCOC(=O)CC(=O)c1cc(Oc2ccccc2)c(NS(C)(=O)=O)cc1O | 112
CCNC(=O)CC(c1ccc(OC)c(OC)c1)N1C(=O)c2ccccc2C1=O (centres undefined) | 131 to 132
COc1c(F)cc(CCC(=O)O)cc1F | 72 to 73
N#CC(N)=C(C#N)N=Cc1nn(-c2c(Cl)cc(C(F)(F)F)cc2Cl)nc1C(F)(F)F | 218 to 220

SMILES | melting point [°C]
COC(=O)CNC(=O)c1ccc(C(=O)NS(=O)(=O)c2ccc(CCNC(=O)C(C)C)cc2)cn1 | 197 to 199
CC1=C(C)C(=O)C(CN2C(=O)[C@H]3CCC[C@H]3N(C(=O)CN3C(=O)c4ccccc4C3=O)c3ccccc32)=C(C)C1=O (relative stereo) | 258 to 260
CCc1cccc(C)c1CNc1ccnc2c1nc(C)n2C | 105 to 109
NC(=O)/C=C1/c2cc(F)ccc2C(O)C1O (centres undefined) | 212 to 220
CN(c1ncccc1C=O)C1CCN(C(=O)OC(C)(C)C)CC1 | 90 to 91
C=CCOc1ccc(OC(C(=O)C(C)(C)C)n2cncn2)cc1 (centres undefined) | 66
CCS(=O)(=O)Nc1cc(C2(NC)NC=NC=C2Cl)c(F)cc1C#N (centres undefined) | 211 to 212
CCCCOc1ccc(S(=O)(=O)C2(C(=O)O)CCN(Cc3ccc(C#N)cc3)CC2)cc1 | 242
ClCCCN1c2ccccc2OCOc2ccc(Cl)cc21 | 105 to 108
CC(=O)C=Cc1c(C)c(C)c2c(c1C)CC(C)(C)O2 | 86 to 87
CCOC(=O)[C@H](CCSCC)NC(=O)C(CSC(C)=O)Cc1ccccc1 (some centres undefined) | 79 to 84
CCCCc1nc(SC)c(C(=O)OCC)n1Cc1cccc(-c2cccc(S(=O)(=O)NC#N)c2)c1 | 112
CCCc1nc(S(C)(=O)=O)c(C(=O)O)n1Cc1ccc(-c2ccccc2S(=O)(=O)NC(=O)NCC)cc1 | 131
Cc1cc2ccncc2c(=N)c2ccccc12 | 165 to 168
FC(F)(c1ccccc1)C(F)(F)c1ccc(Br)cc1 | 80 to 82
OC1CSC(Oc2cc(-c3ccccn3)cc(F)c2F)C(O)C1O (centres undefined) | 162
O=C1CCc2c1cnn2Cc1ccccc1 | 92 to 93
OCc1cccc(Nc2ncc(-c3ccccc3)s2)n1 | 196 to 198
COCCCn1nnnc1-c1ccc(O)c(Br)c1O | 174 to 175
CN1C(C)(C)CC(NC(=O)c2ccc(-c3nc4ccc(Cl)cc4[nH]3)cc2)CC1(C)C | > 250
O=C(O)c1cn(-c2ccc(F)cc2)c2cc(N3CCNC(COc4ccccc4)C3)c(F)cc2c1=O (centres undefined) | 204 to 207
CC(C)(C)NCC(O)c1ccc(O)c(NC=O)c1 (centres undefined) | 195 to 196
CC(=O)N1CCC2(CC1)CC(=O)c1c(ccc([N+](=O)[O-])c1O)O2 | 201 to 202
CCCCCCc1ccc(-c2ccc(-c3ncc(C(=O)OCC)c(O)n3)cc2)cc1 | 91.6 to 91.9
CCCc1c(-c2ccc(C(=O)OC)cc2)oc2cc(NC(C)=O)ccc2c1=O | 244

SMILES | melting point [°C]
Cc1ccc(Cc2cnc(NCCCCNc3ncccc3Cl)[nH]c2=O)cn1 | 180 to 182
CONC(=O)c1cc(C(=O)OC)c(O)c2ncc(Cc3ccc(F)cc3)cc12 | 200 to 201
CCc1nc2c(C)cc(C)nc2n1Cc1ccc(-c2ccccc2-c2c(N)c(=O)c2=O)cc1 | 217
CCN(CC)CC(C)COc1ccc2nc(-c3cccc(OC)c3)n(CC(=O)NC(C)C)c(=O)c2c1 (centres undefined) | 161 to 163
CC1CCC(NS(=O)(=O)NC(=O)OCc2ccccc2)CC1 (centres undefined) | 153 to 155
COc1ccc(C2CNCCc3c2cc(OC)c(OC)c3C)cc1 (centres undefined) | 100 to 111
Cc1cc(OCc2ccc(-c3ccc(C(F)(F)F)c(F)c3)nc2C)ccc1OC(C)(C)C(=O)O | 175 to 176
COc1ccc(C(=O)Nc2c(Cl)cc(NC(C)=O)cc2Cl)cc1OC1CCCC1 | 250 to 252
Cc1cc2c(c3ccc(=O)[nH]c13)OC(CSCCN)C2 (centres undefined) | 182 to 184
O=C(O)C1=Cc2cc(Br)cc(F)c2OC1C(F)(F)F (centres undefined) | 206 to 208
CCCC(=O)NCCC1CCc2ccc3c(c21)OCO3 (centres undefined) | 71 to 73
NS(=O)(=O)c1cc2ncccc2o1 | 219 to 221
Cc1nnc(COc2ccc([N+](=O)[O-])cc2)o1 | 105 to 106
O=C(Cc1ccc(Cl)cc1)N1CCCCC1 | 85 to 85.5
O=C(O)C(=O)c1ccc(OCC(=O)N2CCc3ccccc3C2)cc1 | 218 to 220
Cc1ccc2c(c1)N(CC(=O)c1ccccc1C)C(=O)C(NC(=O)Nc1ccc(F)c(C(=O)O)c1)CN2C(=O)C(C)(C)C (centres undefined) | 225 to 228
COc1ccc2c(c1)C(=O)C(=O)C1=C2OC2(CCN(CC(O)COc3ccc(F)cc3)CC2)CS1 (centres undefined) | 189 to 191
COc1cc(C)c(C(O)c2c(Cl)c(Cl)nc(Cl)c2C(F)(F)F)c(OC)c1OC (centres undefined) | 131 to 135
CCCCn1nc2c(N)nc3ccccc3c2c1CC(C)C | 165 to 166
C=CCOC(=O)Nc1cc(-c2cccc(Cl)c2)sc1C(=O)OC | 101 to 103
COc1cccc(-c2ccc3nnn(Cc4ccc5ncccc5c4)c3n2)c1 | 133 to 135
CCOC(=O)c1cn(C(C)(C)C)c2nc(N3CC[C@H](N)C3)c(F)cc2c1=O | 255
CC(=O)c1cc(-c2ccncc2)sc1N1CCN(C)CC1 | 115 to 117
COC(=O)CCCc1cc2nc(Cl)ccc2n1S(=O)(=O)c1cccc(-c2nccs2)c1 | 82 to 86
